Test results from patent EP4678638A1, “NEW E3 UBIQUITIN LIGASE LIGAND, PROTEIN DEGRADATION AGENT AND USE THEREOF” (priority 2023, dated 2024).
Where two headings read alike, the source gives them in different places. Blank lines part the entries; values can stand above or below the compound they belong to.

Legend:
FAK = target: T1, FAK (Homo sapiens, UniProt Q05397); experiment: Western blot degradation of FAK; format: cell-based; details: Table D7
T1 construct: evaluate the effects of the compounds of the present disclosure on the expression of target proteins in cells; endogenous in cells
Protocol: Conventional Western blot assay was performed to evaluate the effects of the compounds of the present disclosure on the expression of target proteins in cells.
(1) Cell Seeding and Protein Harvesting: The selected cells were processed according to the cell seeding procedure and protein harvesting procedure in Table III-2. Table III-2 Cell Seeding and Protein Harvesting Procedures
(2) To the collected supernatant, 5X SDS sample loading buffer was added, followed by denaturation at 95°C for 5 minutes. The denatured samples were then separated by SDS-PAGE electrophoresis on a polyacrylamide gel. Proteins were transferred to a nitrocellulose membrane (0.45 µm NC membrane), blocked with blocking buffer at room temperature for 1 hour, and subjected to antibody incubation and development procedures according to the antibody manufacturer's instructions (Cell Signaling Technology).
Half-Maximal Degradation Concentration value (the drug concentration required for degrading proteins by 50%, abbreviated as DC50) reads method: comparing the grayscale values of Western blot bands from drug-treated samples with those from blank DMSO-treated controls, and identifying the drug concentration range at which the grayscale value is half that of the DMSO-treated control bands.
DC50 values can be calculated using ImageJ software to measure grayscale values of Western blot bands from drug-treated samples. The concentration-response curve is fitted to estimate the drug concentration corresponding to half the grayscale value.
Target protein remaining (%) refers to the percentage of target protein remaining in hPBMC cells after treatment with protein degrader compounds.
Calculation method for target protein remaining (%): Use ImageJ software to measure grayscale values of Western blot bands from drug (protein degrader)-treated samples. The grayscale value of drug-treated bands is divided by that of internal control protein bands, and the resulting quotient is normalized to obtain the relative percentage of remaining target protein after protein degrader treatment.
Target protein degradation rate (%) = 100% - target protein remaining (%).

MM.1S = experiment: CCK-8 proliferation, MM.1S; format: cell-based; details: Table B10, compounds designed based on the IRAK4 inhibitors, MM.1S cells, read-out: Inhibitory activity (IC50, nM) on tumor cell proliferation, MM.1S
Procedure, shortened: (§1)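 CCK-8 viability readout; IC50 from growth-inhibition curve fitting. Cells plated, dosed 24h later with a 10-point series, top 10µM, 5-fold steps. Culture at 37°C, 5% CO2.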

SR = experiment: CCK-8 proliferation, SR; format: cell-based, Human; details: Table B10, compounds designed based on the IRAK4 inhibitors, SR cells, read-out: Inhibitory activity (IC50, nM) on tumor cell proliferation, SR
Procedure, shortened: as §1

Jurkat = experiment: CCK-8 proliferation, Jurkat; format: cell-based, Human
Protocol: The tumor cells used herein were cultured in a cell culture medium listed in table A1 at 37°C in an incubator with 5% CO2. Prior to experimentation, all cell lines used were correctly identified by STR profiling, and tested negative for mycoplasma contamination using a mycoplasma detection kit through routine screenings. Table A1. Tumor cells and cell culture medium used in the present disclosure
IC50 values of the compounds of the present disclosure (including the compounds in Table 1, and compounds of examples) were measured using the Meilun Cell Counting Kit-8 kit from Dalian Meilun Biotech Co., Ltd. Assay details are as follows: tumor cells were seeded in a 96-well plate at a density listed in Table A2. After 24h, 100 µL of the inoculated cells were treated with 0.5µL of the compounds of the present disclosure (including the compounds in Tables 1 and 2, and compounds of examples) at 10 different successively decreasing concentrations (starting at the highest concentration of 10µM; 5-fold serial dilutions). After the cells were treated with the compounds of the present disclosure for a period of time, the cell viability detection reagent was added to the culture medium for cell viability assessment according to the instructions provided with the CCK-8 kit. […] The growth inhibition of the compounds of the present disclosure on cells was plotted by Prism Graphpad software, and the IC50 values of the compounds of the present disclosure were calculated therefrom. […] Seeding protocol and treatment time for tumor cells

IRAK4 = target: T2, IRAK4 (Homo sapiens, UniProt Q9NWZ3); experiment: Western blot degradation of IRAK4 (hPBMC); format: cell-based; details: Table D1
T2 construct: evaluate the effects of the compounds of the present disclosure on the expression of target proteins in cells; endogenous in cells; host or cells: hPBMC
T2 sequence (Q9NWZ3 1-460): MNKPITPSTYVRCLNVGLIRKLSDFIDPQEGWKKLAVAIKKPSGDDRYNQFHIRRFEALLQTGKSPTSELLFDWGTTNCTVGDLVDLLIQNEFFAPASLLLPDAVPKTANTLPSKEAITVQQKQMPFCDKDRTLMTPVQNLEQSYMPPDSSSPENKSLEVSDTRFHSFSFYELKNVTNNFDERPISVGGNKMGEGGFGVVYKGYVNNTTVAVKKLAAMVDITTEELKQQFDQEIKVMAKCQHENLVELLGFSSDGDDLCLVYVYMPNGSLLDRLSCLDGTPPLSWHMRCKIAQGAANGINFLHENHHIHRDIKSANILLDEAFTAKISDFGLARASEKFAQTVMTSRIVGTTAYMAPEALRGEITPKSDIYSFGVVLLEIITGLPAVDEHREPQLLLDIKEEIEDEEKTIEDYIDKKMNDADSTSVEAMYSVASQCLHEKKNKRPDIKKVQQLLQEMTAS
Procedure, shortened: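 Degradation is assessed by immunoblotting lysates of treated cells. Target bands are quantified by grayscale and normalised to an internal control, so degradation rate equals 100% minus % remaining.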

CCRF-CEM = experiment: CCK-8 proliferation, CCRF-CEM; format: cell-based, Human; details: Homo sapiens, CCRF-CEM; CCK-8; 96 hours; read-out: Inhibitory activity (IC50) on tumor cell proliferation, CCRF-CEM
Procedure, shortened: as §1

[1] = Homo sapiens, Table B10, compounds designed based on the IRAK4 inhibitors, Jurkat cells, read-out: Inhibitory activity (IC50, nM) on tumor cell proliferation, Jurkat
[2] = Homo sapiens, Jurkat, CCK-8, 96 hours, read-out: Inhibitory activity (IC50) on tumor cell proliferation, Jurkat

T1 sequence (Q05397 whole entry, species assumed): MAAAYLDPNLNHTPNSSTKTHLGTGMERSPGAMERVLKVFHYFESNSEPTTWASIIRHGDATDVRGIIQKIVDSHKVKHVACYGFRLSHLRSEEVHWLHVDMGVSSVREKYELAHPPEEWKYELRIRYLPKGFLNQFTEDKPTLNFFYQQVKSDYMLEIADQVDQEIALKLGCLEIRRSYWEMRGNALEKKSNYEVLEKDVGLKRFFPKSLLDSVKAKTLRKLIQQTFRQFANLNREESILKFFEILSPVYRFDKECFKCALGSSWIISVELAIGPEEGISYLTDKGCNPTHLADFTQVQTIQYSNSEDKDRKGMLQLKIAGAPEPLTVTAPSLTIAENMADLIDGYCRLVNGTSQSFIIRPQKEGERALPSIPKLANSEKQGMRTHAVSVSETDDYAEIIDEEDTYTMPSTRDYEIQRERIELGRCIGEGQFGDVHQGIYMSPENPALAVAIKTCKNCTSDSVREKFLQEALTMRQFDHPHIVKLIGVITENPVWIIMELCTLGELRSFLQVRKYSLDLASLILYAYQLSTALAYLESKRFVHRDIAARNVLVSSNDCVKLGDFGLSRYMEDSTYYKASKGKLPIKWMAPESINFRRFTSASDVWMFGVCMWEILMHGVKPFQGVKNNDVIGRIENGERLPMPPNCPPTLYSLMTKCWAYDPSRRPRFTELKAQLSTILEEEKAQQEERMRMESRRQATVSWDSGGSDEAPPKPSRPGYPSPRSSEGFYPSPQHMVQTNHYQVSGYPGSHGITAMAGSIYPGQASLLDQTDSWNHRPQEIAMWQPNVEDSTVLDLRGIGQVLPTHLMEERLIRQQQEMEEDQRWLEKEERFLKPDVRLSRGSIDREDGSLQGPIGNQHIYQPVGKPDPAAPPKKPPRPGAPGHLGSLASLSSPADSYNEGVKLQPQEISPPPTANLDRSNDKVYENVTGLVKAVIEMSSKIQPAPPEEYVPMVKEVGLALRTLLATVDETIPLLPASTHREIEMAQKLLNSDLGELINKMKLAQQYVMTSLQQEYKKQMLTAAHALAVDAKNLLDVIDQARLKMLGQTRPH

SMILES: CS(=O)(=O)c1cccc(CNc2nc(Nc3ccc(N4CCN(Cc5ccc(C6CCC(=O)NC6=O)cc5)CC4)cc3)ncc2C(F)(F)F)c1 (stereo not shown) [GT-03822, 3-(4-((4-(4-((4-((3-(methylsulfonyl)benzyl)amino)-5-(trifluoromethyl)pyrimidin-2-yl)amino)phenyl)piperazin-1-yl)methyl)phenyl)piperidine-2,6-dione]
Degradation of substrate protein FAK (substrate protein remaining %) (FAK): A (A is defined as 0% ≤ substrate protein remaining % ≤ 80%)

SMILES: CS(=O)(=O)c1cccc(CNc2nc(Nc3ccc(N4CCN(Cc5ccc(C6CCC(=O)NC6=O)c(F)c5)CC4)cc3)ncc2C(F)(F)F)c1 (stereo not shown) [GT-03823, 3-(2-fluoro-4-((4-(4-((4-((3-(methylsulfonyl)benzyl)amino)-5-(trifluoromethyl)pyrimidin-2-yl)amino)phenyl)piperazin-1-yl)methyl)phenyl)piperidine-2,6-dione]
Degradation of substrate protein FAK (substrate protein remaining %) (FAK): A (A is defined as 0% ≤ substrate protein remaining % ≤ 80%)

SMILES: CNC(=O)c1ccccc1Nc1cc(Nc2cc(C)c(N3CCN(Cc4ccc(C5CCC(=O)NC5=O)c(F)c4)CC3)cc2OC(C)C)ncc1C(F)(F)F (stereo not shown) [GT-03947, 2-((2-((4-(4-(4-(2,6-dioxopiperidin-3-yl)-3-fluorobenzyl)piperazin-1-yl)-2-isopropoxy-5-methylphenyl)amino)-5-(trifluoromethyl)pyridin-4-yl)amino)-N-methylbenzamide]
Degradation of substrate protein FAK (substrate protein remaining %) (FAK): A (A is defined as 0% ≤ substrate protein remaining % ≤ 80%)

SMILES: CNC(=O)c1ccccc1Nc1cc(Nc2cc(C)c(C3CCN(Cc4ccc(C5CCC(=O)NC5=O)cc4)CC3)cc2OC(C)C)ncc1C(F)(F)F (stereo not shown) [GT-04084, 2-((2-((4-(1-(4-(2,6-dioxopiperidin-3-yl)benzyl)piperidin-4-yl)-2-isopropoxy-5-methylphenyl)amino)-5-(trifluoromethyl)pyridin-4-yl)amino)-N-methylbenzamide]
Degradation of substrate protein FAK (substrate protein remaining %) (FAK): A (A is defined as 0% ≤ substrate protein remaining % ≤ 80%)

SMILES: CNC(=O)c1ccccc1Nc1cc(Nc2cc(C)c(C3CCN(Cc4ccc(C5CCC(=O)NC5=O)c(F)c4)CC3)cc2OC(C)C)ncc1C(F)(F)F (stereo not shown) [GT-04085, 2-((2-((4-(1-(4-(2,6-dioxopiperidin-3-yl)-3-fluorobenzyl)piperidin-4-yl)-2-isopropoxy-5-methylphenyl)amino)-5-(trifluoromethyl)pyridin-4-yl)amino)-N-methylbenzamide]
Degradation of substrate protein FAK (substrate protein remaining %) (FAK): A (A is defined as 0% ≤ substrate protein remaining % ≤ 80%)

IC50 (MM.1S; Homo sapiens, MM1.S): 500 to 1000 nM
IC50 (Jurkat; [1]): 500 to 1000 nM
SMILES: O=C1CCC(c2ccc(CN3CCC(N4CCN(c5ccc6c(c5)nc(NC(=O)c5cccc(C(F)(F)F)c5)n6[C@H]5CC[C@@H](CO)CC5)CC4)CC3)cc2)C(=O)N1 (stereo partly shown) [GT-05020, N-(5-(4-(1-(4-(2,6-dioxopiperidin-3-yl)benzyl)piperidin-4-yl)piperazin-1-yl)-1-((1s,4s)-4-(hydroxymethyl)cyclohexyl) -1H-benzo[d]imidazol-2-yl)-3-(trifluoromethyl)benzamide]
IC50 (SR; Homo sapiens): 500 to 1000 nM

SMILES: O=C1CCC(Nc2cccc(CN3CCC(N4CCN(c5ccc6c(c5)nc(NC(=O)c5cccc(C(F)(F)F)c5)n6[C@H]5CC[C@@H](CO)CC5)CC4)CC3)c2)C(=O)N1 (stereo partly shown) [GT-05023, N-(5-(4-(1-(3-((2,6-dioxopiperidin-3-yl)amino)benzyl)piperidin-4-yl)piperazin-1-yl)-1-((1s,4s)-4-(hydroxymethyl)cyclohexyl) -1H-benzo[d]imidazol-2-yl)-3-(trifluoromethyl)benzamide]
IC50 (MM.1S; Homo sapiens, MM1.S): 500 to 1000 nM
Degradation of substrate protein IRAK4 (substrate protein remaining %) (IRAK4): A (A is defined as 0% ≤ substrate protein remaining % ≤ 80%)
IC50 (SR; Homo sapiens): 500 to 1000 nM
IC50 (Jurkat; [1]): 500 to 1000 nM

IC50 (MM.1S): 500 to 1000 nM
IC50 (Jurkat; Table B10, compounds designed based on the IRAK4 inhibitors, Jurkat cells, read-out: Inhibitory activity (IC50, nM) on tumor cell proliferation, Jurkat): 500 to 1000 nM
SMILES: O=C1CCN(c2ccc(CN3CCC(N4CCN(c5ccc6c(c5)nc(NC(=O)c5cccc(C(F)(F)F)c5)n6[C@H]5CC[C@@H](CO)CC5)CC4)CC3)cn2)C(=O)N1 [GT-05025, N-(5-(4-(1-((6-(2,4-dioxotetrahydropyrimidin-1(2H)-yl)pyridin-3-yl)methyl)piperidin-4-yl)piperazin-1-yl)-1-((1s,4s)-4-(hydroxymethyl)cyclohexyl) -1H-benzo[d]imidazol-2-yl)-3-(trifluoromethyl)benzamide]
IC50 (SR): 500 to 1000 nM

IC50 (CCRF-CEM): 10 to 50 nM
IC50 (Jurkat; [2]): 50 to 100 nM
SMILES: CC1(C)CCC(c2ccc(Cl)cc2)=C(CN2CCN(c3ccc(C(=O)NS(=O)(=O)c4ccc(N[C@H](CCN5CCN(Cc6cc(N7CCC(=O)NC7=O)ncc6F)CC5)CSc5ccccc5)c(S(=O)(=O)C(F)(F)F)c4)cc3)CC2)C1 [GT-07716, (R)-4-(4-((4'-chloro-4,4-dimethyl-3,4,5,6-tetrahydro-[1,1'-biphenyl]-2-yl)methyl)piperazin-1-yl)-N-((4-((4-(4-((2-(2,4-dioxotetrahydropyrimidin-1(2H)-yl)-5-fluoropyridin-4-yl)methyl)piperazin-1-yl)-1-(phenylthio)butan-2-yl)amino)-3-((trifluoromethyl)sulfonyl)phenyl)sulfonyl)benzamide]

IC50 (CCRF-CEM): 10 to 50 nM
IC50 (Jurkat; [2]): 10 to 50 nM
SMILES: CC1(C)CCC(c2ccc(Cl)cc2)=C(CN2CCN(c3ccc(C(=O)NS(=O)(=O)c4ccc(N[C@H](CCN5CCN(Cc6ccnc(N7CCC(=O)NC7=O)c6)CC5)CSc5ccccc5)c(S(=O)(=O)C(F)(F)F)c4)cc3)CC2)C1 [GT-07717, (R)-4-(4-((4'-chloro-4,4-dimethyl-3,4,5,6-tetrahydro-[1,1'-biphenyl]-2-yl)methyl)piperazin-1-yl)-N-((4-((4-(4-((2-(2,4-dioxotetrahydropyrimidin-1(2H)-yl)pyridin-4-yl)methyl)piperazin-1-yl)-1-(phenylthio)butan-2-yl)amino)-3-((trifluoromethyl)sulfonyl)phenyl)sulfonyl)benzamide]
